Test results as given in article PMC6724197 (Journal of chemical ecology, 2018).

Assays:
[1] = tested on: pygmy rabbits (Brachylagus idahoensis); test: Two-choice feeding trial: single monoterpene diet vs monoterpene mixture diet; type: in vivo; conditions: for percentage of single monoterpene in the diet relative to monoterpene mixture: pygmy rabbits
[2] = tested on: mountain cottontails (Sylvilagus nuttallii); test: as above; type: in vivo
digestive enzyme = conditions: in a generalist more than in a specialist avian folivore; ref Kohl et al. 2015; cited from earlier work

| SMILES | percentage of single monoterpene in the diet relative to monoterpene mixture [1] | amount of single monoterpene diet consumed relative to monoterpene mixture [2] | proportion consumed by pygmy rabbits relative to cottontails ([1]; pygmy rabbits vs mountain cottontails) | amount of monoterpene mixture consumed relative to single monoterpene diet [2] | effect on digestive enzyme activity (digestive enzyme) |
| --- | --- | --- | --- | --- | --- |
| CC12CCC(CC1)C(C)(C)O2 [1,8-cineole] | twice | 24 times |  |  |  |
| CC12CCC(CC1=O)C2(C)C (centres unmarked) [camphor] | twice |  | twice | twice | reduced digestive enzyme activity |
| C=C1C2CCC(C2)C1(C)C (centres unmarked) [camphene] |  | more than five times |  |  |  |
| C=C1CCC2CC1C2(C)C (stereo not drawn) [β-pinene] |  |  |  | three times |  |
